Converted amounts (≈) assume the structure as drawn. Where two headings read alike, the source gives them in different places.
Tests used:
Type in all cases: cell-based, Influenza A
[1] = tested on: Victoria/3/75-Os-R (H3N2); assay: microbe, parasite or virus in culture
[2] = tested on: Pennsylvania/30/2009 H275Y, I223R (H1N1)
[3] = tested on: Mississippi/3/2001 H275Y (H1N1)
[4] = tested on: Hawaii/31/2007 H275Y (H1N1)
[5] = tested on: Hong Kong/2369/2009 H275Y (H1N1)
WSN/33 H274Y (H1N1) = tested on: WSN/33 H274Y (H1N1)

Compound	EC50 ([1]; Influenza A virus, H3N2, MDCK) [µg/mL]	EC50 [2] [µg/mL]	EC50 [3] [µg/mL]	EC50 [4] [µg/mL]	EC50 [5] [µg/mL]	EC50 (WSN/33 H274Y (H1N1)) [µg/mL]	EC50 [1] [µg/mL]	SI [1]	SI [2]	SI [3]	SI [4]	SI [5]	SI (WSN/33 H274Y (H1N1))
NC(=O)c1ncn([C@@H]2O[C@H](CO)[C@@H](O)[C@H]2O)n1 [Ribavirin, ribavirin]	5.4 (≈ 22.1 µM)	5.2 (≈ 21.3 µM)	18 (≈ 73.7 µM)	7.2 (≈ 29.5 µM)	28 (≈ 115 µM)	3.7 (≈ 15.2 µM)	–	–	–	–	–	–	–
Oseltamivir acid [Oseltamivir (OSE)]	–	>50	>50	>21	–	28	>50	0	0	0	<2.4	<6.4	>1.8
